Measurements from ChEMBL document CHEMBL1123713, “Synthesis and calcium channel antagonist activity of dialkyl 4- (dihydropyridinyl)-1,4-dihydro-2,6-dimethyl-3,5-pyridinecarboxylates” (J Med Chem, 1987).

Assays:
[1] = biological target: Muscarinic acetylcholine receptor (Homo sapiens) (UniProt P20309+P08173+P11229+P08172+P08912); details: Cavia porcellus
Description: Inhibition of muscarinic receptor mediated [Ca2+] dependent contraction of guinea pig ileal longitudinal smooth muscle.

Cavia porcellus = organism: Cavia porcellus; assay: Negative logarithm antagonist concentration causing 50% inhibition of tonic CD response in the guinea pig ileal longitudinal smooth muscle preparation; assay type: functional, Muscle tissue
[2] = biological target: Voltage-gated L-type calcium channel (Homo sapiens, UniProt Q13936+Q13698+Q01668+O60840); assay: Negative log antagonist concentration causing 50% displacement of [3H]nifedipine from guinea pig ileal smooth muscle membrane.; assay type: tissue-based, Cavia porcellus, Muscle tissue; details: target entry is the homologue from another species
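Wherever ID50 is given: blockade of Ca2+-dependent contraction driven by muscarinic receptors in longitudinal smooth muscle strips of guinea pig ileum.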

SMILES | ID50 [1] [µM] | -Log ID50 (Cavia porcellus) | -Log KD50 [2]
CC1=NC(C)=C(C(=O)OCC(C)C)C(C2=CC=CN(C(=O)Oc3ccccc3)C2)/C1=C(\O)OCC(C)C (stereo not given) | 6.46 | – | –
CCOC(=O)C1=C(C)N=C(C)/C(=C(/O)OCC)C1C1=CCN(C(=O)OC)C=C1 (stereo not given) | 2.43 | – | –
COC(=O)N1C=CC=C(C2C(C(=O)OCC(C)C)=C(C)N=C(C)/C2=C(/O)OCC(C)C)C1 (stereo not given) | 0.771 | – | –
COC(=O)C1=C(C)N=C(C)/C(=C(/O)OC)C1C1=CC=CN(C(=O)Oc2ccccc2)C1 (stereo not given) | 3.69 | 5.43 | –
COC(=O)C1=C(C)N=C(C)/C(=C(/O)OC)C1C1=CCN(C(=O)OC)C=C1 (stereo not given) | 7.47 | – | –
COC(=O)N1C=CC=C(C2C(C(=O)OCC(C)C)=C(C)N=C(C)/C2=C(/O)OC)C1 (stereo not given) | 0.031 | – | –
CC1=NC(C)=C(C(=O)OC(C)C)C(C2=CC=CN(C(=O)OC(C)(C)C)C2)/C1=C(\O)OC(C)C (stereo not given) | 0.114 | – | –
CO/C(O)=C1\C(C)=NC(C)=C(C(=O)OCC(C)C)C1C1=CC=CN(C(=O)Oc2ccccc2)C1 (stereo not given) | 0.045 | – | –
CO/C(O)=C1\C(C)=NC(C)=C(C(=O)OCC(C)C)C1C1=CCN(C(=O)OC(C)(C)C)C=C1 (stereo not given) | 1.18 | – | –
CC1=NC(C)=C(C(=O)OCC(C)C)C(C2=CCN(C(=O)OC(C)(C)C)C=C2)/C1=C(\O)OCC(C)C (stereo not given) | 2.03 | – | –
COC(=O)N1C=CC(C2C(C(=O)OCC(C)C)=C(C)N=C(C)/C2=C(/O)OCC(C)C)=CC1 (stereo not given) | 1.72 | – | –
COC(=O)N1C=CC=C(C2C(C(=O)OC(C)C)=C(C)N=C(C)/C2=C(/O)OC)C1 (stereo not given) | 0.158 | – | –
CO/C(O)=C1\C(C)=NC(C)=C(C(=O)OCC(C)C)C1C1=CCN(C(=O)Oc2ccccc2)C=C1 (stereo not given) | 81 | – | –
CCOC(=O)C1=C(C)N=C(C)/C(=C(/O)OCC)C1C1=CC=CN(C(=O)OC(C)(C)C)C1 (stereo not given) | 0.672 | – | –
CC1=NC(C)=C(C(=O)OCC(C)C)C(C2=CC=CN(C(=O)OC(C)(C)C)C2)/C1=C(\O)OCC(C)C (stereo not given) | 3.42 | – | –
CO/C(O)=C1\C(C)=NC(C)=C(C(=O)OCC(C)C)C1C1=CC=CN(C(=O)OC(C)(C)C)C1 (stereo not given) | 0.128 | – | –

SMILES | ID50 [1] [µM] | -Log ID50 (Cavia porcellus) | -Log KD50 [2]
CCOC(=O)C1=C(C)N=C(C)/C(=C(/O)OCC)C1C1=CC=CN(C(=O)OC)C1 (stereo not given) | 0.18 | – | –
CCOC(=O)C1=C(C)N=C(C)/C(=C(/O)OCC)C1C1=CC=CN(C(=O)Oc2ccccc2)C1 (stereo not given) | 0.865 | – | –
COC(=O)C1=C(C)N=C(C)/C(=C(/O)OC)C1C1=CC=CN(C(=O)OC(C)(C)C)C1 (stereo not given) | 5.77 | 5.24 | –
CC1=NC(C)=C(C(=O)OCC(C)C)C(C2=CCN(C(=O)Oc3ccccc3)C=C2)/C1=C(\O)OCC(C)C (stereo not given) | 0.51 | – | –
COC(=O)N1C=CC=C(C2C(C#N)=C(C)N=C(C)/C2=C(/O)OC)C1 (stereo not given) | 51.6 | – | –
COC(=O)N1C=CC=C(C2C(C#N)=C(C)NC(C)=C2C#N)C1 | 33.9 | – | –
COC(=O)C1=C(C)N=C(C)/C(=C(/O)OC)C1C1=CC=CN(C(=O)OC)C1 (stereo not given) | 0.589 | 6.23 | –
COC(=O)N1C=CC(C2C(C(=O)OC(C)C)=C(C)N=C(C)/C2=C(/O)OC(C)C)=CC1 (stereo not given) | 1.01 | – | –
CC1=NC(C)=C(C(=O)OC(C)C)C(C2=CC=CN(C(=O)Oc3ccccc3)C2)/C1=C(\O)OC(C)C (stereo not given) | 1.67 | 5.78 | –
CO/C(O)=C1\C(C)=NC(C)=C(C(=O)OC(C)C)C1C1=CC=CN(C(=O)Oc2ccccc2)C1 (stereo not given) | 0.9 | – | –
COC(=O)N1C=CC(C2C(C#N)=C(C)NC(C)=C2C#N)=CC1 | 67.5 | – | –
COC(=O)N1C=CC(C2C(C(=O)OCC(C)C)=C(C)N=C(C)/C2=C(/O)OC)=CC1 (stereo not given) | 1.76 | – | –
COC(=O)C1=C(C)NC(C)=C(C(=O)OC)C1c1ccccc1[N+](=O)[O-] [NIFEDIPINE] | – | – | 9.08
CO/C(O)=C1\C(C)=NC(C)=C(C(=O)OC(C)C)C1C1=CC=CN(C(=O)OC(C)(C)C)C1 (stereo not given) | 0.237 | – | –
COC(=O)N1C=CC=C(C2C(C(=O)OC(C)C)=C(C)N=C(C)/C2=C(/O)OC(C)C)C1 (stereo not given) | 0.131 | – | –
